This passage reports water-solubility results from patent publication US9328115B2, “Process for preparing meropenem trihydrate” (DAEWOONG PHARMACEUTICAL CO., LTD., priority 2012, dated 2016).

This data set is described as follows: Water-solubility measurement at 26° C. It counts as physicochemical. The following applies: in water, measured at 26° C. On the procedure:
The water-solubilities of the methanol solvate of meropenem obtained in the above as well as meropenem trihydrate were measured at 26° C.

On to `C[C@@H](O)[C@H]1C(=O)N2C(C(=O)O)=C(S[C@@H]3CN[C@H](C(=O)N(C)C)C3)[C@H](C)[C@H]12` [meropenem trihydrate, (4R,5S,6S)-3-((3S,5S)-5-(dimethylcarbamoyl)pyrrolidin-3-ylthio)-6-((R)-1-hydroxyethyl)-4-methyl-7-oxo-1-azabicyclo[3.2.0]hept-2-ene-2-carboxylic acid], for which the water-solubility was 16.4 mg/mL.

Take `C[C@@H](O)[C@H]1C(=O)N2C(C(=O)O)=C(S[C@@H]3CN[C@H](C(=O)N(C)C)C3)[C@H](C)[C@H]12` [methanol solvate of meropenem, (4R,5S,6S)-3-((3S,5S)-5-(dimethylcarbamoyl)pyrrolidin-3-ylthio)-6-((R)-1-hydroxyethyl)-4-methyl-7-oxo-1-azabicyclo[3.2.0]hept-2-ene-2-carboxylic acid]: the water-solubility worked out at 57.6 mg/mL.
